Assay results from ChEMBL document CHEMBL5370660, “Design of a Supersoft Topical JAK Inhibitor, Which Is Effective in Human Skin but Rapidly Deactivated in Blood” (J Med Chem, 2023).

What was measured:
[1] = Saturation solubility of compound in PEG400/transcutol/benzyl alcohol/water mixture using crystalline form of sample; format: physicochemical
JAK3/JAK1 = JAK3/JAK1 (Homo sapiens, UniProt P23458+P52333); test: Inhibition of JAK1/3-mediated STAT5 phosphorylation in human M07E cells preincubated for 30 mins followed by IL-15 stimulation measured after 15 mins by flow cytometry; format: cell-based
JAK3/JAK1, sequence (P23458 whole entry, one chain of several): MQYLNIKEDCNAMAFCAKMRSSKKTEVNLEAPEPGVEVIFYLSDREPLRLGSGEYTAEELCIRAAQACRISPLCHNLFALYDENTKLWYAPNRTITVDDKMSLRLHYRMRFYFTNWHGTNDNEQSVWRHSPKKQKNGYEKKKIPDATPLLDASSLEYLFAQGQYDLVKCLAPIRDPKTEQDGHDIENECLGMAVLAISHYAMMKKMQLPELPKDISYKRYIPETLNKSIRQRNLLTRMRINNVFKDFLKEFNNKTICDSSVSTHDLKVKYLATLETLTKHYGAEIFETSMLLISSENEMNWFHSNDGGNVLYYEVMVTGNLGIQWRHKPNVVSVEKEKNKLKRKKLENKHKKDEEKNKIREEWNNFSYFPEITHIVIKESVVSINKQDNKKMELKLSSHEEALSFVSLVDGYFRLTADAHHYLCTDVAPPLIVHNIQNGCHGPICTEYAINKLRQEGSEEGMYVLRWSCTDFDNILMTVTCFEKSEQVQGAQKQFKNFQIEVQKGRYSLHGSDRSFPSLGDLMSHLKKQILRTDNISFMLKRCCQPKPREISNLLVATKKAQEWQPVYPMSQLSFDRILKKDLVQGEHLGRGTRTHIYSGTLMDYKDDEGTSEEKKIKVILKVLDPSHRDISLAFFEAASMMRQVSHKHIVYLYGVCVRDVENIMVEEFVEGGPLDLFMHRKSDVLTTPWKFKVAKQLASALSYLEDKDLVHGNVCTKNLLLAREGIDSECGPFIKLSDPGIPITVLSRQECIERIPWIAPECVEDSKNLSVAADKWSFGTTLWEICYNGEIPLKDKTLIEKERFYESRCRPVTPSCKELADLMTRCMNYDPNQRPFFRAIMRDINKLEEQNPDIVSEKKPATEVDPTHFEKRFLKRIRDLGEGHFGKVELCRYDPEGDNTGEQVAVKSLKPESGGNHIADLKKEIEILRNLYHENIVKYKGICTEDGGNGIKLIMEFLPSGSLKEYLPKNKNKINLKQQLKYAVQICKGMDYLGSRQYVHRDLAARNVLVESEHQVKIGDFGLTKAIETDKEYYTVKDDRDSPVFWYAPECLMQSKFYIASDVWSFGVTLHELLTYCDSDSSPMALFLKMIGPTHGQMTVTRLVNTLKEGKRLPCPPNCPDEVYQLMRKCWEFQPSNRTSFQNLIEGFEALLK

[2] = Drug metabolism in rat assessed as excretion of 2-(6-((5-carbamoyl-4-((2-methoxyphenyl)amino)pyridin-2-yl)amino)pyridin-3-yl)acetic acid metabolite by measuring half life; format: ADME
JAK2/JAK1 = JAK2/JAK1 (Homo sapiens, UniProt O60674+P23458); test: Inhibition of JAK1/2-mediated STAT1 phosphorylation in human M07E cells preincubated for 30 mins followed by IFN-alpha stimulation measured after 15 mins by flow cytometry; format: cell-based
JAK2/JAK1, sequence (P23458 whole entry, the tested form may be a part): as the sequence (P23458 whole entry, one chain of several) above
JAK2/JAK1, sequence (O60674 whole entry, the tested form may be a part): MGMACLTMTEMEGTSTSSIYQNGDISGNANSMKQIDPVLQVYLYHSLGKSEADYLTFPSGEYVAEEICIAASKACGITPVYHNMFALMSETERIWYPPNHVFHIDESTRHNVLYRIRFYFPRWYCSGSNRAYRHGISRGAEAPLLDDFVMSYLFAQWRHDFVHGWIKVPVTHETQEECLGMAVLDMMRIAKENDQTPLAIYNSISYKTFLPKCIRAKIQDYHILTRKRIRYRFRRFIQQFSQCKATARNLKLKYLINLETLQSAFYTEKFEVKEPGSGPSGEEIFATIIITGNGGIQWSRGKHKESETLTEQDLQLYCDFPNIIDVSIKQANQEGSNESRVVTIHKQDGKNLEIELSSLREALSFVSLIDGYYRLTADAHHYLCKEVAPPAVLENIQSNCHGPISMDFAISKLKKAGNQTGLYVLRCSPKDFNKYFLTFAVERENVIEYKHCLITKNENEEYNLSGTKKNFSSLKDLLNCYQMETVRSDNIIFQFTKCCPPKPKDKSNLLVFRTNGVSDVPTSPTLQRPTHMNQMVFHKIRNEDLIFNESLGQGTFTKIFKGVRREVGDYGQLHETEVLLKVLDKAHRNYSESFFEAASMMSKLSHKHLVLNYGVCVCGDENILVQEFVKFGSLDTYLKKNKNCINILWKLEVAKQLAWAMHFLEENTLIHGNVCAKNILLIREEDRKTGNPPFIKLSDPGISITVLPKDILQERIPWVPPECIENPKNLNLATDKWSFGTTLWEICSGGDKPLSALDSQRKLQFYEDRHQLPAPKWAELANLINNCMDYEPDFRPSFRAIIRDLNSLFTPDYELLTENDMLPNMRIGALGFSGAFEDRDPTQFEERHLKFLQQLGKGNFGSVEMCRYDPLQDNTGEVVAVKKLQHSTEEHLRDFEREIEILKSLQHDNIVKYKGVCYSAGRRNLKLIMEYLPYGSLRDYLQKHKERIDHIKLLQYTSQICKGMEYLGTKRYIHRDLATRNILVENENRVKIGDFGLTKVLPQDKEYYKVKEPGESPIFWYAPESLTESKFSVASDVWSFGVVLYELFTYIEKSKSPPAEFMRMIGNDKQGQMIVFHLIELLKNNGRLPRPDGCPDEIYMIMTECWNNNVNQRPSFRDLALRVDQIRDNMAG

[3] = target: Tyrosine-protein kinase JAK2 (Homo sapiens, UniProt O60674); test: Inhibition of GST-fused JAK2 (808 to 1132 residues)(unknown origin) using Carboxyfluorescein-Ahx-GGEEEEYFELVKKKK peptide as substrate incubated for 30 mins in presence of ATP by caliper microfluidic mobility shift assay
Tyrosine-protein kinase JAK2, sequence (O60674 whole entry, the tested form may be a part): as above

[4] = Stability in dermis human abdominal skin upto 2.5 % administered topically as ointment treated for 24 hrs followed by removal of ointment and stratum corneum and subsequently stimulated with IL-4/IL-13 measured after 3 hrs; format: ADME, tissue-based, Abdomen skin; conditions: topical_or_ocular, 27 h, route top
[5] = target: T1, Tyrosine-protein kinase JAK3 (Homo sapiens, UniProt P52333); test: Inhibition of GST-fused JAK3 (811 to 1124 residues)(unknown origin) using Carboxyfluorescein-Ahx-GGEEEEYFELVKKKK peptide as substrate incubated for 30 mins in presence of ATP by caliper microfluidic mobility shift assay
T1 sequence (P52333 whole entry): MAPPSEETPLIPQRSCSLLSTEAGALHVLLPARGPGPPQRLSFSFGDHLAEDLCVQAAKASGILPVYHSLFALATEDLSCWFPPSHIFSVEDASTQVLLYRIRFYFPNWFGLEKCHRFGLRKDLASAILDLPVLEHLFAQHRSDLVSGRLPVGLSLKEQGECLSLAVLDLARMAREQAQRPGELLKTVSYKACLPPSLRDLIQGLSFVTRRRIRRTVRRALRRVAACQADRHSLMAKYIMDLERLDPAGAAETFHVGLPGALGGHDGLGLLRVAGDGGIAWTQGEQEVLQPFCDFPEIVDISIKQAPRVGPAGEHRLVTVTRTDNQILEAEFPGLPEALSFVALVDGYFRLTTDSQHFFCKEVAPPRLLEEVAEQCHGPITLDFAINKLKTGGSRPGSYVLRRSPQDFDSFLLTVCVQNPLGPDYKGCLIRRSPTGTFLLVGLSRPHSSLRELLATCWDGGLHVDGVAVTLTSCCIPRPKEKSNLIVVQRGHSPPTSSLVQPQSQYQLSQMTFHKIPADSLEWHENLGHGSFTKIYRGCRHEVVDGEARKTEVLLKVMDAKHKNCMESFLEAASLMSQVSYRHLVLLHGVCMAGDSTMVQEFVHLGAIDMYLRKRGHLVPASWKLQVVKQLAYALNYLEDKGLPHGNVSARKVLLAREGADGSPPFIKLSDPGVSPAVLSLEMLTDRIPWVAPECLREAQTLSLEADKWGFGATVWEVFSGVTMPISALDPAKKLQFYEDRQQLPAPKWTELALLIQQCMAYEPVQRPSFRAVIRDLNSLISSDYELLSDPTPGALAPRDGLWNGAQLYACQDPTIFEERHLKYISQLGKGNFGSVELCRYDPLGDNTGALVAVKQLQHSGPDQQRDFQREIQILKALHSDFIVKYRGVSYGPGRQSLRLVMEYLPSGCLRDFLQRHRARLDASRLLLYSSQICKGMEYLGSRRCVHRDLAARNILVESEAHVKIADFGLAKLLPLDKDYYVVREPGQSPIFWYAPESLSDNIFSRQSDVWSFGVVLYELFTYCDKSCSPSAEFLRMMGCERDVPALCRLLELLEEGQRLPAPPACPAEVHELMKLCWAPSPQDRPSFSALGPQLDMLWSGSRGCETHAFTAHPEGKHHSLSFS

[6] = Stability of compound in fresh human skin explant using Franz diffusion cell model assessed as compound concentration in dermis at 3 % administered topically preincubated overnight followed by fresh media replacement in receiver fluid without compound and subsequently stimulated with IL-4/IL-13 measured after 40 hrs by LC-MS/MS analysis; format: ADME, tissue-based, Skin of body; conditions: topical or ocular, read-out: Ct
[7] = target: T2, Mitogen-activated protein kinase kinase kinase 2 (Homo sapiens, UniProt Q9Y2U5); test: Inhibition of MAP3K2 (unknown origin)
T2 sequence (Q9Y2U5 whole entry): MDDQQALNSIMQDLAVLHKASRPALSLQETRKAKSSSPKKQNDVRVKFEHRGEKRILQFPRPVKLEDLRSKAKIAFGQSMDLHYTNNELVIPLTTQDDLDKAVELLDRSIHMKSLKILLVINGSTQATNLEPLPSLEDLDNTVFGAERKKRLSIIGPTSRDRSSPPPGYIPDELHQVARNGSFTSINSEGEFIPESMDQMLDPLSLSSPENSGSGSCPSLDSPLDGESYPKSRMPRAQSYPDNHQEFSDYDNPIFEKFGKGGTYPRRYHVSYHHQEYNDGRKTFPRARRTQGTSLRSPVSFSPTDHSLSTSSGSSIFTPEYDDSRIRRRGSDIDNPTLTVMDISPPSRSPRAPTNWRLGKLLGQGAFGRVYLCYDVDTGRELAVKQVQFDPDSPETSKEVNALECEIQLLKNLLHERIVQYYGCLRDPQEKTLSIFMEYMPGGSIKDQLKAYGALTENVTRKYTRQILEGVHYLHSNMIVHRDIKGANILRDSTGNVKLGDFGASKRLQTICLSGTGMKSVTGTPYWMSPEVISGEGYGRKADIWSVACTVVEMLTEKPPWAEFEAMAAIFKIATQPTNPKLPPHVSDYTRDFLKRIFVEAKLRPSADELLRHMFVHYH

[8] = Permeability of compound; format: ADME; conditions: not told; read-out: permeability
[9] = Drug penetration in fresh human skin explant using Franz diffusion cell model assessed as concentration of 2-(6-((5-carbamoyl-4-((2-methoxyphenyl)amino)pyridin-2-yl)amino)pyridin-3-yl)acetic acid metabolite in receiver fluid at 3 % administered topically preincubated overnight followed by fresh media replacement in receiver fluid without compound and subsequently stimulated with IL-4/IL-13 measured after 24 hrs by LC-MS/MS analysis; format: ADME, tissue-based, Skin of body; conditions: topical_or_ocular
[10] = Thermodynamic solubility of the compound at pH 6.8 using crystalline form of sample; format: physicochemical
[11] = Stability of compound under temperature stress assessed as compound degradation at 50 degreeC measured after 7 days using crystalline form of sample; format: physicochemical; conditions: time 7 day; read-out: Drug degradation
[12] = Stability of compound under light stress assessed as compound decomposition under sunlight with intensity of 4000 KJ/m2, irradiation of 250 W/m2, wavelength of >290 nm, temperature of 37 degreeC for 4 hrs using crystalline form of sample; format: ADME; conditions: read-out: Drug degradation
[13] = Metabolic stability in human skin S9 fraction measured upto 120 mins by LC-MS analysis; format: ADME, subcellular

COC[C@@H](C)OC(=O)Cc1ccc(Nc2cc(Nc3ccccc3OC)c(C(N)=O)cn2)nc1
solubility thermodynamic [1]: > 18000 µg/mL | IC50 (JAK3/JAK1): 131 nM | t1/2 [2]: < 20 min | IC50 (JAK2/JAK1): 45 nM | IC50 [3]: 5 nM | Stability [4]: Stable | IC50 [5]: 4 nM | concentration at 40 h, 3 % [6]: 59 µM | IC50 [7]: < 100 nM | Papp [8]: 18 ×10⁻⁶ cm/s | Drug uptake [9]: 0.223 µM | Therm_solubility [10]: 0.007 µg/mL | degraded at 168 h [11]: 0.4% | degraded at 4 h [12]: 0.1% | half-life [13]: 42 min
